Measurements from patent US12187702B2, “Sulfonamideurea compounds” (Inflazome Limited, priority 2018, dated 2025).
Counter-ions that a name gives are not always drawn.

Assays:
PK, oral administration = assay type: in vivo, male Sprague Dawley rats; conditions: male, Sprague Dawley, plasma, rat, 3 mg/kg
Procedure: (§1) Pharmacokinetic parameters were determined in male Sprague Dawley rats (Charles River, UK, 250-350 g; or Vital River Laboratory Animal Technology Co Ltd, Beijing, China, 7-9 weeks old). Animals were individually housed during the study and maintained under a 12 h light/dark cycle.
(§2) For intravenous administration, compounds were formulated as a solution in water or DMSO:PBS [10:90] in 2 mL/kg dosing volume and administered via tail or jugular vein. For oral administration, compounds were formulated as a solution in 0.5% w/v methyl cellulose in water in 5 mL/kg dosing volume and administered orally.
(§3) Serial blood samples (about 120-300 μL) were taken from each animal at each of 8 time-points post dose (0.083, 0.25, 0.5, 1, 2, 4, 8 and 24 h) or at each of 12 time-points post dose (0.03, 0.1, 0.17, 0.25, 0.5, 1, 2, 4, 6, 8, 12 and 24 h) or pre-dose and at each of 9 time-points post dose (0.25, 0.5, 1, 2, 4, 6, 8, 12 and 24 h). Samples were held on ice for no longer than 30 minutes before centrifugation (10,000 rpm (8,385 g) for 3 minutes; or 5,696 rpm (3,000 g) for 15 minutes) for plasma generation. Plasma was frozen on dry ice prior to bioanalysis. PK parameters were generated from LC-MS/MS data using Dotmatics or Phoenix WinNonlin 6.3 software.

NLRP3 [1] = molecular target: T1, NLRP3 (Homo sapiens, UniProt Q96P20); test: Human whole blood IL-1β release assay (LPS + nigericin, AlphaLisa); assay type: cell-based; design: Plate out 80 μl of whole blood containing 1 μg/ml of LPS; from tissue; host or cells: human whole blood from healthy donors; conditions: human whole blood, 1 μg/ml LPS, 10 μM nigericin; IL-1β release; read-out: HWB IC50
How it was run: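 Healthy-donor Li-heparin whole blood containing 1 μg/ml LPS incubated with compound (8-point half-log dilution, 10 μM top) for 3 h at 37 °C, then with 10 μM nigericin for 1 h. Supernatant IL-1β measured by AlphaLisa; IC50 from 4-parameter variable-slope fit.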

NLRP3 [2] = molecular target: T1, NLRP3; test: THP-1 cells pyroptosis assay (LPS + nigericin, resazurin read-out); assay type: cell-based; design: Seed THP-1 cells (25,000 cells/well) containing 1.0 μg/ml LPS; host or cells: THP-1 cells; conditions: THP-1 cells, 1 μg/ml LPS, 5 μM nigericin; NLRP3 inhibitory activity; read-out: THP IC50
How it was run: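 THP-1 cells (25,000/well) primed with 1 μg/ml LPS in serum-free RPMI, treated 3 h with compound (8-point half-log series, 10 μM top, 0.1% DMSO), then 5 μM nigericin for 1 h at 37 °C. Viability read by 100 μM resazurin fluorescence after 1-2 h; IC50 from 4-parameter fit.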

[3] = PK, intravenous administration; assay type: in vivo, male Sprague Dawley rats; conditions: male, Sprague Dawley, plasma, rat; for clearance / half-life: dose per compound as in Table 3; for AUC: dose per compound as in Table 3 (0.08-1.86 mg/kg); for Vd: dose per compound as in Table 3, read-out: Vdss
Procedure: as §1, §2, §3

T1 sequence (Q96P20 whole entry): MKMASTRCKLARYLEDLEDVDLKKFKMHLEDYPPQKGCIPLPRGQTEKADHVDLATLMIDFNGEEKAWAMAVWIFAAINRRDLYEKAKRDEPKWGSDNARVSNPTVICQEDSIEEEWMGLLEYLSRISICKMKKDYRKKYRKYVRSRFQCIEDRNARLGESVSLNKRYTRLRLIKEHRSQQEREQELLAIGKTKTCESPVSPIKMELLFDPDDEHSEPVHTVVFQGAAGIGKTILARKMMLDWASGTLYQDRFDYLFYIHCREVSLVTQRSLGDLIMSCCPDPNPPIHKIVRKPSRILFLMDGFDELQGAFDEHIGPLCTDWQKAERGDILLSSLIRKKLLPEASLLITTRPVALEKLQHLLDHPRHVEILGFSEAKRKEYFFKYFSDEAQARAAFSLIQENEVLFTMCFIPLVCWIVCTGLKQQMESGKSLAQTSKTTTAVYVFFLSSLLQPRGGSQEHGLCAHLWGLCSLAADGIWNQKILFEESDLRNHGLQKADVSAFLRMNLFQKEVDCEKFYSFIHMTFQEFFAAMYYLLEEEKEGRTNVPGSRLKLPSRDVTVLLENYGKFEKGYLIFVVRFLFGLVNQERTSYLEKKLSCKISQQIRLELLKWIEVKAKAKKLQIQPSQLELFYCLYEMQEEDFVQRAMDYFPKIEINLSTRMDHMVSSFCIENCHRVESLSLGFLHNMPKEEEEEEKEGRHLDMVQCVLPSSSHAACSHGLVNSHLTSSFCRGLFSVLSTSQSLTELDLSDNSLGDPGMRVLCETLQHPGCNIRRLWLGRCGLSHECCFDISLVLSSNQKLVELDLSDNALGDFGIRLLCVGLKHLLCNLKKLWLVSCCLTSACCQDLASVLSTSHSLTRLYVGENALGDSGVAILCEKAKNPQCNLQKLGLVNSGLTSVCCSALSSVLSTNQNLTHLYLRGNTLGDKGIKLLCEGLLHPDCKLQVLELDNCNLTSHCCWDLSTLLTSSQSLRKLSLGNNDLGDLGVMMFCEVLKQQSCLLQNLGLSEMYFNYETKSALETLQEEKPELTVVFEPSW

Row | SMILES | AUC (PK, oral administration) [ng·h/mL] | CL/F (PK, oral administration) [mL/min/kg] | Cmax (PK, oral administration) [ng/mL] | Tmax (PK, oral administration) [h] | bioavailability (PK, oral administration) [%] | half-life (PK, oral administration) [h] | IC50 (NLRP3 [1]) [nM] | IC50 (NLRP3 [2]) [nM] | clearance [3] [mL/min/kg] | half-life [3] [h] | AUC [3] [ng·h/mL] | Vd [3] [L/kg]
1 | COc1cc(-c2ccc3c(c2NC(=O)NS(=O)(=O)N(C)[C@H]2CCN(C)C2)CCC3)ccn1 [Example 111, (S)-3-(N-methyl-N-(1-methylpyrrolidin-3-yl)sulfamoyl)-1-(5-(2-methoxypyridin-4-yl)-2,3-dihydro-1H-inden-4-yl)urea, potassium salt] | 1380 | 38 | 318 | 0.67 | 47 | 4 | < 500 | < 500 | 17 | 4.8 | 979 | 1.3
2 | COc1cc(-c2ccc3c(c2NC(=O)NS(=O)(=O)N(C)[C@@H]2CCN(C)C2)CCC3)ccn1 [Example 110, (R)-3-(N-Methyl-N-(1-methylpyrrolidin-3-yl)sulfamoyl)-1-(5-(2-methoxypyridin-4-yl)-2,3-dihydro-1H-inden-4-yl)urea, potassium salt] | 1020 | 50 | 277 | 0.67 | 41 | 3.4 | < 500 | < 500 | 20 | 3.9 | 835 | 1.6
